From patent publication US20180071317A1, “USE OF AGENTS THAT ALTER THE PERITUMORAL ENVIRONMENT FOR THE TREATMENT OF CANCER” (SERVICIO ANDALUZ DE SALUD, priority 2011, published 2018)

Assays:
[1] = tested on: fibroblasts (PHF) co-cultured with tumor cells of lung carcinoma (A-427); experiment: Marker expression (IHC) in PHF co-cultured with A-427 tumor cells; type: cell-based, human; conditions: co-culture with A-427 lung carcinoma; SP 1 μM; 48 h;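 also: cultures grown in human blood plasma from a healthy donor, value is the percentage of fibroblasts positive for each marker, six replicates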
Procedure: (§1) All cultures were maintained 48 hours, following which the same cells were included in paraffin blocks for subsequent analysis of the expression of different markers by immunohistochemistry (see Example 1). […] All experiments were carried out sixfold. Analyzed markers in fibroblast cells (stromal cells) were: TGF-α, TGF-β1, TGF-β2, TGF-β3, SPARC, MMP-3, MMP-7, MMP-9, MMP-11, MMP-13 and MMP-14.

[2] = tested on: fibroblasts (PHF) co-cultured with human fibrosarcoma tumor cells (HT-1080); experiment: Marker expression (IHC) in PHF co-cultured with HT-1080 tumor cells; type: cell-based; conditions: co-culture with HT-1080; SP 1 μM; 48 h;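 also: cultures grown in fresh human plasma from a healthy donor, six replicates, value is percent of fibroblasts positive for the marker, compared with fibroblasts cultured without tumor cells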
Procedure: as §1

[3] = tested on: fibroblasts (PHF) co-cultured with human melanoma tumor cells (MEL-HO1); experiment: Marker expression (IHC) in PHF co-cultured with MEL-HO1 tumor cells; type: cell-based; conditions: PHF co-cultured with MEL-HO1 + SP;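 also: values are the percentage of fibroblasts positive for each marker, with cultures grown in fresh healthy-donor blood plasma and each experiment run six times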
Procedure: as §1

[4] = tested on: fibroblasts (PHF) cells co-cultured with human T lymphoma tumor (DERL-7); experiment: Marker expression (IHC) in PHF co-cultured with DERL-7 tumor cells; type: cell-based; conditions: PHF co-cultured with DERL-7 + SP
Procedure: All cultures were maintained 48 hours, following which the same cells were included in paraffin blocks for subsequent analysis of the expression of different markers by immunohistochemistry (see Example 1). The primary antibodies used to perform immunohistochemical assays and their concentration are detailed in Example 2. All experiments were carried out sixfold. Analyzed markers in fibroblast cells (stromal cells) were: TGF-α, TGF-β1, TGF-β2, TGF-β3, SPARC, MMP-3, MMP-7, MMP-9, MMP-11, MMP-13 and MMP-14.

[5] = tested on: co-cultures of tumor cells-endothelial cells (C-12210); experiment: Inhibition/survival in co-cultures of primary human tumor cells and endothelial cells; type: cell-based; conditions: survival in reference to control, SP 1 μM
Procedure: To check that the interaction of primary tumor cells extracted directly from human with human vascular endothelial cells, promotes the survival of both cell types, co-cultures were performed microvascular endothelial cells from juvenile foreskins (PromoCell GmbH, Sickingenstraβe 63/65, D-69126 Heidelberg, Germany; reference C-12210) with tumor cells obtained directly from primary human tumors.
A total of 6 wells containing tumor cells were used as control for survival. Another 6 wells containing tumor cells were cultured with addition of endothelial cells.
Subsequently, cells were embedded in paraffin for analysis by immunohistochemistry. In order to identify the different cell types and quantity of them [They were labelled with primary antibodies specific for human endothelial cells (anti-CD31), carcinoma cells (Anti-Cytokeratins Spread Spectrum), glioma (Anti-glial fibrillary acidic protein), fibrosarcoma and malignant fibrous histiocytoma (Anti-Smooth Muscle Actin), Ewing sarcoma (Anti-CD99), Melanoma (Anti-HMB45), leukemias and lymphomas (Anti-Common Antigen Leucitario) and myeloma (anti CD 138). All antibodies are distributed by Dako and were used at the same concentration which is supplied (supplied pre-diluted—“ready to use”).

[6] = Carcinoma of lung, (Small cell carcinoma in Table 36)
[7] = Carcinoma of lung, Non Small Cell Carcinoma in Table 36
[8] = Carcinoma of thyroid, (Follicular Carcinoma in Table 36)
[9] = Carcinoma of thyroid, (Papillary Carcinoma in Table 36)

CSCC[C@H](NC(=O)[C@H](CC(C)C)NC(=O)CNC(=O)[C@H](Cc1ccccc1)NC(=O)[C@H](Cc1ccccc1)NC(=O)[C@H](CCC(N)=O)NC(=O)[C@H](CCC(N)=O)NC(=O)[C@@H]1CCCN1C(=O)[C@H](CCCCN)NC(=O)[C@@H]1CCCN1C(=O)[C@@H](N)CCCNC(=N)N)C(N)=O [SP]
PHF cells expressing MMP-3 [1]: 45.5 ± 1.6%
PHF cells expressing MMP-7 [1]: 54.3 ± 2.2%
PHF cells expressing MMP-9 [1]: 55.5 ± 2.4%
PHF cells expressing MMP-11 [1]: 25.5 ± 1.8%
PHF cells expressing MMP-13 [1]: 44.3 ± 2.5%
PHF cells expressing MMP-14 [1]: 45.1 ± 3.5%
PHF cells expressing SPARC [1]: 47 ± 1.2%
PHF cells expressing TGF-α [1]: 42.3 ± 2.1%
PHF cells expressing TGF-β1 [1]: 33.4 ± 2.1%
PHF cells expressing TGF-β2 [1]: 40.9 ± 2.1%
PHF cells expressing TGF-β3 [1]: 51.4 ± 1.6%
PHF cells expressing MMP-3 [2]: 43.4 ± 2.8%
PHF cells expressing MMP-7 [2]: 57.1 ± 3.8%
PHF cells expressing MMP-9 [2]: 52.3 ± 2.4%
PHF cells expressing MMP-11 [2]: 27.5 ± 3.8%
PHF cells expressing MMP-13 [2]: 45.4 ± 3.6%
PHF cells expressing MMP-14 [2]: 49.3 ± 3.5%
PHF cells expressing SPARC [2]: 51.2 ± 3.3%
PHF cells expressing TGF-α [2]: 42.5 ± 3.1%
PHF cells expressing TGF-β1 [2]: 33.6 ± 3.1%
PHF cells expressing TGF-β2 [2]: 40.7 ± 2.1%
PHF cells expressing TGF-β3 [2]: 51 ± 1.6%
cells expressing MMP-3 [3]: 44.5 ± 4.7%
cells expressing MMP-7 [3]: 55.5 ± 3.8%
cells expressing MMP-9 [3]: 53.3 ± 2.4%
cells expressing MMP-11 [3]: 24.4 ± 3.8%
cells expressing MMP-13 [3]: 46.1 ± 3.5%
cells expressing MMP-14 [3]: 46.2 ± 3.5%
cells expressing SPARC [3]: 44.5 ± 1.4%
cells expressing TGF-α [3]: 42.4 ± 3.2%
cells expressing TGF-β1 [3]: 42.5 ± 2.1%
cells expressing TGF-β2 [3]: 44.5 ± 1.9%
cells expressing TGF-β3 [3]: 43.5 ± 2.6%
cells expressing MMP-3 [4]: 63.4 ± 3.7%
cells expressing MMP-7 [4]: 66.1 ± 4.8%
cells expressing MMP-9 [4]: 62.3 ± 3.4%
cells expressing MMP-11 [4]: 67.8 ± 4.8%
cells expressing MMP-13 [4]: 61 ± 5.3%
cells expressing MMP-14 [4]: 58.4 ± 3.5%
cells expressing SPARC [4]: 67 ± 4.2%
cells expressing TGF-α [4]: 62.5 ± 3.1%
cells expressing TGF-β1 [4]: 64.5 ± 4.3%
cells expressing TGF-β2 [4]: 70.6 ± 4.1%
cells expressing TGF-β3 [4]: 61 ± 5.6%
Endothelial cells co-cultured with tumor cells + SP ([5]; Carcinoma of Colon): 243 ± 4%
Tumor cells co-cultured with endothelial cells + SP ([5]; Carcinoma of Colon): 253 ± 4%
Endothelial cells co-cultured with tumor cells + SP ([5]; Carcinoma of Pancreas): 287 ± 3%
Tumor cells co-cultured with endothelial cells + SP ([5]; Carcinoma of Pancreas): 252 ± 4%
Endothelial cells co-cultured with tumor cells + SP ([5]; Carcinoma of breast): 281 ± 4%
Tumor cells co-cultured with endothelial cells + SP ([5]; Carcinoma of breast): 253 ± 5%
Endothelial cells co-cultured with tumor cells + SP ([5]; Carcinoma of cervix): 292 ± 4%
Tumor cells co-cultured with endothelial cells + SP ([5]; Carcinoma of cervix): 260 ± 4%
Endothelial cells co-cultured with tumor cells + SP ([5]; Carcinoma of endometrial): 283 ± 5%
Tumor cells co-cultured with endothelial cells + SP ([5]; Carcinoma of endometrial): 252 ± 3%
Endothelial cells co-cultured with tumor cells + SP [5, 6]: 294 ± 2%
Tumor cells co-cultured with endothelial cells + SP [5, 6]: 264 ± 3%
Endothelial cells co-cultured with tumor cells + SP [5, 7]: 274 ± 5%
Tumor cells co-cultured with endothelial cells + SP [5, 7]: 245 ± 6%
Endothelial cells co-cultured with tumor cells + SP ([5]; Carcinoma of ovarian): 282 ± 4%
Tumor cells co-cultured with endothelial cells + SP ([5]; Carcinoma of ovarian): 254 ± 4%
Endothelial cells co-cultured with tumor cells + SP ([5]; Carcinoma of prostate): 270 ± 4%
Tumor cells co-cultured with endothelial cells + SP ([5]; Carcinoma of prostate): 269 ± 1%
Endothelial cells co-cultured with tumor cells + SP ([5]; Carcinoma of stomach): 251 ± 3%
Tumor cells co-cultured with endothelial cells + SP ([5]; Carcinoma of stomach): 260 ± 4%
Endothelial cells co-cultured with tumor cells + SP [5, 8]: 260 ± 5%
Tumor cells co-cultured with endothelial cells + SP [5, 8]: 240 ± 6%
Endothelial cells co-cultured with tumor cells + SP [5, 9]: 265 ± 2%
Tumor cells co-cultured with endothelial cells + SP [5, 9]: 230 ± 4%
Endothelial cells co-cultured with tumor cells + SP ([5]; Fibrosarcoma): 249 ± 5%
Tumor cells co-cultured with endothelial cells + SP ([5]; Fibrosarcoma): 257 ± 3%
Endothelial cells co-cultured with tumor cells + SP ([5]; Glioma): 238 ± 6%
Tumor cells co-cultured with endothelial cells + SP ([5]; Glioma): 247 ± 5%
Endothelial cells co-cultured with tumor cells + SP ([5]; Hodgkin's Lymphoma): 248 ± 5%
Tumor cells co-cultured with endothelial cells + SP ([5]; Hodgkin's Lymphoma): 265 ± 4%
Endothelial cells co-cultured with tumor cells + SP ([5]; Leukemia B): 278 ± 4%
Tumor cells co-cultured with endothelial cells + SP ([5]; Leukemia B): 265 ± 6%
Endothelial cells co-cultured with tumor cells + SP ([5]; Leukemia T): 276 ± 4%
Tumor cells co-cultured with endothelial cells + SP ([5]; Leukemia T): 256 ± 6%
Endothelial cells co-cultured with tumor cells + SP ([5]; Malignant fibrous histiocytoma): 246 ± 4%
Tumor cells co-cultured with endothelial cells + SP ([5]; Malignant fibrous histiocytoma): 245 ± 3%
Endothelial cells co-cultured with tumor cells + SP ([5]; Melanoma): 267 ± 4%
Tumor cells co-cultured with endothelial cells + SP ([5]; Melanoma): 245 ± 2%
Endothelial cells co-cultured with tumor cells + SP ([5]; Myeloma): 267 ± 2%
Tumor cells co-cultured with endothelial cells + SP ([5]; Myeloma): 232 ± 3%
Endothelial cells co-cultured with tumor cells + SP ([5]; Neuroblastoma): 258 ± 3%
Tumor cells co-cultured with endothelial cells + SP ([5]; Neuroblastoma): 256 ± 5%
Endothelial cells co-cultured with tumor cells + SP ([5]; Non-Hodgkin's Lymphoma B): 254 ± 7%
Tumor cells co-cultured with endothelial cells + SP ([5]; Non-Hodgkin's Lymphoma B): 267 ± 5%
Endothelial cells co-cultured with tumor cells + SP ([5]; Non-Hodgkin's Lymphoma T): 256 ± 4%
Tumor cells co-cultured with endothelial cells + SP ([5]; Non-Hodgkin's Lymphoma T): 276 ± 4%
Endothelial cells co-cultured with tumor cells + SP ([5]; Renal carcinoma): 282 ± 4%
Tumor cells co-cultured with endothelial cells + SP ([5]; Renal carcinoma): 260 ± 4%
Endothelial cells co-cultured with tumor cells + SP ([5]; Sarcoma of Ewing): 234 ± 5%
Tumor cells co-cultured with endothelial cells + SP ([5]; Sarcoma of Ewing): 236 ± 4%
